Measurements published in patent publication US8445653B2, “Freeze-dried preparation of stabilized anthracycline compound” (Dainippon Sumitomo Pharma, priority 2002, dated 2013).
Where a name gives a salt, the structure may show the parent alone. Read-outs that look alike come from different tables or passages of the source.

Columns and labels:
[1] = pH of anthracycline injections when dissolved; format: physicochemical; conditions: lyophilized preparation for clinical administration dissolved in physiological saline solution or 5% glucose injection
Experimental: Actually, when the anthracycline anticancer agents being sold in Japan (all of them are injections) are dissolved in a distilled water for injection or a physiological saline solution, the pH values thereof are as follows (Drugs (ethical drugs) in Japan, 24 ed., 2001, edited by Japan Pharmaceutical Information Center).
(§1) On the contrary, since amrubicin hydrochloride tends to generate a deaminated compound (3) at a pH value of 3.5 or above, it is unstable at a high pH value as shown in the above anthracycline anticancer agents, and when the lyophilized preparation of amrubicin hydrochloride for clinical administration is dissolved in a physiological saline solution or a 5% glucose injection, the pH value thereof is 2.4 to 3.0.

[2] = Degradation in solution state at controlled solution temperature (Experiment 4); format: physicochemical
Experimental: To amrubicin hydrochloride (20 mg potency) in a glass beaker were added L-cysteine hydrochloride monohydrate (3.2 mg) and lactose (50 mg) as an excipient, and the resultant was dissolved in a distilled water for injection. The pH value of the solution was slightly adjusted to about pH 3 with a trace amount of sodium hydroxide and hydrochloric acid, and the resulting solution was put into a temperature-controlled bath at 5° C., 10° C., 15° C. and 25° C. The solution was sampled at the start, 6 hours later, and 24 hours later, and the degradation products therein were measured by HPLC method. The increased amounts of the desaccharified compound (2) and the deaminated compound (3) from those at the start are shown in Table 4.

[3] = pH dependence of generation of deaminated compound (3) from amrubicin hydrochloride; format: physicochemical
Experimental: as §1

[4] = injection sold in Japan dissolved in distilled water for injection or physiological saline solution; cited from earlier work
[5] = Turbidity of injection solution prepared from lyophilized amrubicin preparation; format: physicochemical
[6] = solution about pH 3, 5° C., 6 h
[7] = solution about pH 3, 5° C., 24 h
[8] = solution about pH 3, 10° C., 0 h
[9] = solution about pH 3, 10° C., 6 h
[10] = solution about pH 3, 10° C., 24 h
[11] = solution about pH 3, 15° C., 0 h
[12] = solution about pH 3, 15° C., 6 h
[13] = solution about pH 3, 15° C., 24 h
[14] = solution about pH 3, 25° C., 0 h
[15] = solution about pH 3, 25° C., 6 h
[16] = solution about pH 3, 25° C., 24 h

CC(=O)[C@]1(N)Cc2c(O)c3c(c(O)c2[C@@H](O[C@H]2C[C@H](O)[C@H](O)CO2)C1)C(=O)c1ccccc1C3=O [amrubicin hydrochloride, (7S,9S)-9-Acetyl-9-amino-7-[(2-deoxy-β-D-erythro-pentopyranosyl)-oxy]-7,8,9,10-tetrahydro-6,11-dihydroxy-5,12-naphthacenedione]
pH value [1]: 2.4 to 3.0 | Increased amount of deaminated compound (3) ([2]; solution about pH 3, 5° C., 0 h): 0.00% | Increased amount of deaminated compound (3) [2, 6]: 0.00% | Increased amount of desaccharified compound (2) [2, 6]: −0.01% | Increased amount of deaminated compound (3) [2, 7]: 0.04% | Increased amount of desaccharified compound (2) [2, 7]: 0.02% | Increased amount of deaminated compound (3) [2, 8]: 0.00% | Increased amount of desaccharified compound (2) [2, 8]: 0.00% | Increased amount of deaminated compound (3) [2, 9]: 0.00% | Increased amount of desaccharified compound (2) [2, 9]: 0.01% | Increased amount of deaminated compound (3) [2, 10]: 0.09% | Increased amount of desaccharified compound (2) [2, 10]: 0.01% | Increased amount of deaminated compound (3) [2, 11]: 0.00% | Increased amount of desaccharified compound (2) [2, 11]: 0.00% | Increased amount of deaminated compound (3) [2, 12]: 0.07% | Increased amount of desaccharified compound (2) [2, 12]: 0.00% | Increased amount of deaminated compound (3) [2, 13]: 0.24% | Increased amount of desaccharified compound (2) [2, 13]: −0.01% | Increased amount of deaminated compound (3) [2, 14]: 0.00% | Increased amount of desaccharified compound (2) [2, 14]: 0.00% | Increased amount of deaminated compound (3) [2, 15]: 0.19% | Increased amount of desaccharified compound (2) [2, 15]: 0.05% | Increased amount of deaminated compound (3) [2, 16]: 0.60% | Increased amount of desaccharified compound (2) [2, 16]: 0.18% | Increased amount of desaccharified compound (2) ([2]; solution about pH 3 with L-cysteine hydrochloride monohydrate and lactose, 5° C., 0 h): 0.00% | pH value at which deaminated compound (3) tends to be generated [3]: ≥ 3.5

COc1cccc2c1C(=O)c1c(O)c3c(c(O)c1C2=O)C[C@@](O)(C(C)=O)C[C@@H]3O[C@H]1C[C@H](N)[C@H](O)[C@H](C)O1 [Daunorubicin hydrochloride]
pH value [4]: 5.0-6.5

COc1cccc2c1C(=O)c1c(O)c3c(c(O)c1C2=O)C[C@@](O)(C(=O)CO)C[C@@H]3O[C@H]1C[C@H](N)[C@H](O[C@@H]2CCCCO2)[C@H](C)O1.Cl [Pirarubucin hydrochloride]
pH value [4]: 5.0-6.5

COc1cccc2c1C(=O)c1c(O)c3c(c(O)c1C2=O)C[C@@](O)(C(=O)CO)C[C@@H]3O[C@H]1C[C@H](N)[C@H](O)[C@H](C)O1 [Doxorubicin hydrochloride]
pH value [4]: 5.0-6.0

CC(=O)C1=Cc2c(O)c3c(c(O)c2[C@@H](OC2CC(O)C(O)CO2)C1)C(=O)c1ccccc1C3=O (some centres unmarked) [deaminated compound (3)]
Ratio at which it may cause turbidity of the injection solution [5]: ≥ 1%

CC[C@@]1(O)C[C@H](O[C@H]2C[C@H](N(C)C)[C@H](O[C@H]3C[C@H](O)[C@H](O[C@H]4CCC(=O)[C@H](C)O4)[C@H](C)O3)[C@H](C)O2)c2c(cc3c(c2O)C(=O)c2c(O)cccc2C3=O)[C@H]1C(=O)OC [Aclarubicin hydrochloride]
pH value [4]: 5.0-6.5

CC(=O)[C@]1(O)Cc2c(O)c3c(c(O)c2[C@@H](O[C@H]2C[C@H](N)[C@H](O)[C@H](C)O2)C1)C(=O)c1ccccc1C3=O [Idarubicin hydrochloride]
pH value [4]: 5.0-7.0
